Measurements as given in patent US20220008447A1, “Rosacea Treatment Method” (priority 2019, published 2022).

How the values were obtained:
[1] = tested on: rosacea; details: cited from earlier work
[2] = tested on: patient with rosacea; assay: Application b.i.d. of other Delphinidin topical formulations to the face of a rosacea patient (Examples 11-13, present tense); format: in vivo, human
From the text: A topical gel is made with delphinidin 3,5-O-diglucoside 7% (w/w) in a standard cosmetic disappearing gel base. Application b.i.d. to the face of a patient with lupus-related rosacea, for at least about one month alleviates lupus-related skin inflammation and the patient maintains normal, healthy skin. A topical cream is made with delphinidin 6% (w/w) in a standard cosmetic lipophilic cream base. […] A topical cream is made with delphinidin 3-O-sambubioside 5-O-glucoside 3% (w/w) in a standard cosmetic disappearing cream base. Application b.i.d. to the face of a patient with papulopustular rosacea with transient, central face pustules for two months reduces central facial erythema and eliminates transient central face pustules.

[3] = Example 13, 3% (w/w) disappearing cream, papulopustular rosacea, two months

## CC[C@H]1OC(=O)[C@H](C)[C@@H](O[C@H]2C[C@@](C)(OC)[C@@H](O)[C@H](C)O2)[C@H](C)[C@@H](O[C@@H]2O[C@H](C)C[C@H](N(C)C)[C@H]2O)[C@](C)(O)C[C@@H](C)CN(C)[C@H](C)[C@@H](O)[C@]1(C)O [Azithromycin]
[1]; only one study
  efficacy compared with 100 mg doxycycline: may be as effective as 100 mg doxycycline

## O=C(O)CCCCCCCC(=O)O [azelaic acid]
[1]; prior-art treatment
  reducing rosacea symptoms: effective and safe
  side effects: caused mild burning, stinging or irritation
  time until improvements appear: three to six

## Brc1c(NC2=NCCN2)ccc2nccnc12 [brimonidine]
[1]; prior-art treatment
  duration of effect on redness after being applied: up to 12 hours

## OC[C@H]1O[C@@H](Oc2cc3c(O[C@@H]4O[C@H](CO)[C@@H](O)[C@H](O)[C@H]4O)cc(O)cc3[o+]c2-c2cc(O)c(O)c(O)c2)[C@H](O)[C@@H](O)[C@@H]1O [delphinidin 3,5-O-diglucoside]
[2]; Example 11, 7% (w/w) topical gel, lupus-related rosacea, at least about one month
  lupus-related skin inflammation: alleviates

## OC[C@H]1O[C@@H](Oc2cc(O)cc3[o+]c(-c4cc(O)c(O)c(O)c4)c(O[C@@H]4O[C@H](CO)[C@@H](O)[C@H](O)[C@H]4O[C@@H]4OC[C@@H](O)[C@H](O)[C@H]4O)cc23)[C@H](O)[C@@H](O)[C@@H]1O [delphinidin 3-O-sambubioside 5-O-glucoside]
[2]; [3]
  central facial erythema: reduces
  transient central face pustules: eliminates

## Oc1cc(O)c2cc(O)c(-c3cc(O)c(O)c(O)c3)[o+]c2c1 [delphinidin, 2-(3,4,5-trihydroxyphenyl) chromenylium-3,5,7-triol]
[2]; Example 12, 6% (w/w) lipophilic cream, erythematotelangiectatic rosacea, two weeks
  flushing, persistent central facial erythema and telangiectasia: measurably reduces

## C[C@H]1c2cccc(O)c2C(=O)C2=C(O)[C@]3(O)C(=O)C(C(N)=O)=C(O)[C@@H](N(C)C)[C@@H]3[C@@H](O)[C@@H]21 [doxycycline]
[1]; low dose, 40 mg
  side effects of low dose compared with 100 mg: much fewer side effects of diarrhea and nausea

## CC1=C(/C=C/C(C)=C/C=C/C(C)=C\C(=O)O)C(C)(C)CCC1 [isotretinoin]
[1]; low dose, 0.3 mg/kg
  efficacy compared with doxycycline, pimples and pustules: slightly more effective than 50-100 mg doxycycline

## Cc1ncc([N+](=O)[O-])n1CCO [metronidazole]
[1]; prior-art treatment
  reducing rosacea symptoms: effective and safe
  side effects: very few people experienced mild itching, skin irritation and dry skin
  time until improvements appear: three to six

## Ivermectin
[1]; prior-art treatment
  efficacy compared with placebo and metronidazole: more effective than placebo and slightly more effective than metronidazole
